Assays:
[1] = target: T1, hormone sensitive lipase (HSL) (Homo sapiens, UniProt Q05469); test: 3190.2: Assay for determination of IC50 value for the inhibition of hormone sensitive lipase; format: biochemical; conditions: fluorochrome-labeled triacylglyceride substrate; 30 min pre-incubation at 25° C., 120 min incubation at 37° C.; 4PL fit
T1 construct: made in house
T1 sequence (Q05469 1-1076): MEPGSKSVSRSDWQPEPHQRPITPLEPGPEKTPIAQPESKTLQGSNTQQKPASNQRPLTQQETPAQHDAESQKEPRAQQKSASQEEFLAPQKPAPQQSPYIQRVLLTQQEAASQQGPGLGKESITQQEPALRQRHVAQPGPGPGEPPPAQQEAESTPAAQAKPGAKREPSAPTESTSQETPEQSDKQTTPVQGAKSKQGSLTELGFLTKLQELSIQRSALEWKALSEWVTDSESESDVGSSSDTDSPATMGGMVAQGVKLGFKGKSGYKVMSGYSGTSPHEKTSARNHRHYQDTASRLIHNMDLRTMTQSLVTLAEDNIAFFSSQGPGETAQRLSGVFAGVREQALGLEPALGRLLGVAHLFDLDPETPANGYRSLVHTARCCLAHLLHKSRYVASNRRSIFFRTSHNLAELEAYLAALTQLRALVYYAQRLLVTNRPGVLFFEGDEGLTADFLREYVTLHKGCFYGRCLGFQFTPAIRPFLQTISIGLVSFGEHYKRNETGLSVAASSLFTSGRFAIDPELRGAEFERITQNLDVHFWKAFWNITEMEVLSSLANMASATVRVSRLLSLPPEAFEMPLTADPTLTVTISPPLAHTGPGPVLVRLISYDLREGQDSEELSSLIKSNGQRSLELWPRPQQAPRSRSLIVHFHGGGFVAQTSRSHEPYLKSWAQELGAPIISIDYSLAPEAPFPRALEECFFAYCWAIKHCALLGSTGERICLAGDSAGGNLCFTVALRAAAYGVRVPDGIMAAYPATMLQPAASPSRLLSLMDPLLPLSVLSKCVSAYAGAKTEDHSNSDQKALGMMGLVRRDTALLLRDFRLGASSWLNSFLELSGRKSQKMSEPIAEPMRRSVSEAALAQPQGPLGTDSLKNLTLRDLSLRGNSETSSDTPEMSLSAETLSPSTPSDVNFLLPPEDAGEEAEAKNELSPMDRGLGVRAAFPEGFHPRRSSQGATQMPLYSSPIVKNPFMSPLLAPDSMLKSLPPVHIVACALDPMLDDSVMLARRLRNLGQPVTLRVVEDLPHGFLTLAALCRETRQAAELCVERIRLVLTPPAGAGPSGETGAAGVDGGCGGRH
Source text: Materials. The Hormone-sensitive lipase was provided by Dr. Cecilia Holm, from Lund University Sweden or produced and purified by Novo Nordisk (NN) using the reagents and protocols used by Dr. Holm. The substrates used are: ^3H-labeled triolein (TO) from Amersham, Buckinghamshire, U.K. cat o. TRA191; 5-20 Ci/mmol dissolved in toluene, triolein (Sigma, Cat. No. T-1740), fluorochrome-labeled triacylglyceride (cis-octadec-9-enoic acid 2-[12-(7-nitrobenzo[1,2,5]oxadiazol-4-ylamino)-dodecanoyloxy]-1-cis-octadec-9-enoyloxymethylethyl ester) prepared by Novo Nordisk (NN) by conventional methods, and 1,3-(di[^3H]-stearin), 2-(PEG-Biotin)glycerol prepared in collaboration with Amersham Pharmacia Biotech, UK and described in WO 01/073442. Phosphatidyl choline (PC) and phosphatidyl inositol (PI) are from Sigma (St Luis Mo. cat. Nos. P-3556 and P-5954, respectively). All other reagents are of commercial grade and obtained from various commercial sources.
3190.2: Assay for determination of IC50 value for the inhibition of hormone sensitive lipase by compound. Standard concentrations of compound are 100 μM and 5-fold dilutions (initial concentration corresponding to 10 μM final concentration and 5-fold).
A lipid emulsion with fluorochrome-labeled triacylglyceride and phospholipid is used as substrate with a standard concentration of highly purified HSL (12 μg/mL initial concentration corresponding to 600 ng/mL final concentration). BSA is added as product acceptor. The transfer of the fluorochrome from the lipid phase to the water (BSA) phase changes the fluorescent properties of the fluorochrome. The changes can be monitored on a fluorimeter with an excitation wavelength of 450 nm and an emission wavelength of 545 nm.
Compound and HSL (20 μL compound, 10 μL enzyme and 70 μL PED-BSA buffer) is pre-incubated for 30 min at 25° C. before addition of substrate (100 μL). Amount of formed product is measured after 120 min incubation at 37° C.
Results are given as IC50 values after 4PL fit of obtained activity data.

| Compound | IC50 [1] | melting point |
| --- | --- | --- |
| CC1(C)CC(=O)N(c2ccc(OC(=O)N3CCc4ccccc4C3)nc2)C(=O)C1 [Example 1, 3,4-Dihydro-1H-isoquinoline-2-carboxylic acid 4,4-dimethyl-2,6-dioxo-3,4,5,6-tetrahydro-2H-[1,3′]bi-pyridinyl-6′-yl ester] | 400 nM | 156 to 158 °C |
| O=C(Oc1ccc(N2C(=O)CC3(CCCC3)CC2=O)cn1)N1CCc2ccccc2C1 [Example 3, 3,4-Dihydro-1H-isoquinoline-2-carboxylic acid 5-(7,9-dioxo-8-azaspiro[4.5]dec-8-yl)pyridin-2-yl ester] | 40 nM | – |
| O=C(Oc1ccc(NC2=NC3(CCCC3)CS2)cn1)N1CCc2ccccc2C1 [Example 4, 3,4-Dihydro-1H-isoquinoline-2-carboxylic acid 5-(3-thia-1-azaspiro[4.4]non-1-en-2-ylamino)-pyridin-2-yl ester] | 400 nM | – |

— US20080227792A1, “3,4-Dihydro-1H-Isoquinoline-2-Carboxylic Acid 5-Aminopyridin-2-Yl Esters” (Novo Nordisk A/S, priority 2005, published 2008)
